Measurements: patent US11396516B2, “Tricyclic compounds as Cyp1 inhibitors” (The General Hospital Corporation, priority 2017, dated 2022)
“Also recorded” adds a separate entry of the source. Marks after values point to notes of the source that are not given here.

Experiments:
zebrafish embryos = experiment: Zebrafish toxicity in the absence of doxorubicin (TD50); details: absence of doxorubicin treatment
Description: Dose-response curves were constructed using Prism (GraphPad). Raw data representing percent rescue at each dose was log-transformed, and EC50 values were calculated using nonlinear regression analysis. The median toxic dose (TD50) was defined for each compound by assessing for pericardial edema, non-specific deformities, and death in the absence of doxorubicin treatment (data not shown). Concentrations at and above the TD50 (toxic dose) were excluded from dose-response curves.

CYP1A [1] = experiment: Zebrafish CYP1A Western blot; assay type: in vivo; details: co-treatment with DOX, 10 μM
Description: Assessing RNA and protein levels was performed using quantitative PCR (FIG. 2A) and Western blot with a zebrafish-specific antibody against CYP1A (FIG. 2B). […] This effect was seen as early as 18 hours post-treatment, prior to the development of the cardiomyopathy phenotype at 42 hours post-treatment.

CYP2C8 = CYP2C8 (Homo sapiens (Human), UniProt P10632); experiment: CYP inhibition assay, human liver microsomes; assay type: biochemical; details: paclitaxel 10 μM, reference montelukast
Sequence of CYP2C8 (P10632 whole entry): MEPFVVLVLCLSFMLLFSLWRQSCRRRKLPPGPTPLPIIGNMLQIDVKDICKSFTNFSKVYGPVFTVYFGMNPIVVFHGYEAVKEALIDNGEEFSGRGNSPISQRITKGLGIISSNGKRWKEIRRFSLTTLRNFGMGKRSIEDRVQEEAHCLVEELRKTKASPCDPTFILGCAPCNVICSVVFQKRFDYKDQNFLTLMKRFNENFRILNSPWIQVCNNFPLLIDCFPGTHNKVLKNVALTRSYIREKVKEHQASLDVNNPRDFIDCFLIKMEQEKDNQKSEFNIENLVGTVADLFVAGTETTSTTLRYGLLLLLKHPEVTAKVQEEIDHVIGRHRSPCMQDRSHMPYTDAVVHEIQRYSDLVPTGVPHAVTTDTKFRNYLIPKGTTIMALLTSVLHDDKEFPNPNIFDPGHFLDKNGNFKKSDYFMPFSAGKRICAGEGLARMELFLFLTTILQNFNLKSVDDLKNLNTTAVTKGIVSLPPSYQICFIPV
Description: (§1) CYP inhibition experiments were performed by Cerep Panlabs (Eurofins) using human liver microsomes and the following substrates: phenacetin 10 μM (CYP1A), buproprion 100 μM (CYP2B6), paclitaxel 10 μM (CYP2C8), diclofenac 10 μM (CYP 2C9), omeprazole 0.5 μM (CYP2C19), dextromethorphan 5 μM (CYP2D6), and testosterone 50 μM (CYP3A). Metabolites of each substrate were measured using LC-MS/MS. Mean percent inhibition was calculated using the following reference inhibitors: furafylline (CYP1A), clopidogrel (CYP2B6), montelukast (CYP2C8), sulfaphenazole (CYP2C9), oxybutynin (CYP2C19), quinidine (CYP2D6), and ketoconazole (CYP3A). […] All concentrations were tested in duplicate to obtain the final results.
(§2) The ability of the tested compounds to inhibit a panel of CYP enzymes in vitro was assessed using a series of human liver microsome assays.

CYP2B6 = CYP2B6 (Homo sapiens (Human), UniProt P20813); experiment: CYP inhibition assay, human liver microsomes; assay type: biochemical; details: buproprion 100 μM
Sequence of CYP2B6 (P20813 whole entry): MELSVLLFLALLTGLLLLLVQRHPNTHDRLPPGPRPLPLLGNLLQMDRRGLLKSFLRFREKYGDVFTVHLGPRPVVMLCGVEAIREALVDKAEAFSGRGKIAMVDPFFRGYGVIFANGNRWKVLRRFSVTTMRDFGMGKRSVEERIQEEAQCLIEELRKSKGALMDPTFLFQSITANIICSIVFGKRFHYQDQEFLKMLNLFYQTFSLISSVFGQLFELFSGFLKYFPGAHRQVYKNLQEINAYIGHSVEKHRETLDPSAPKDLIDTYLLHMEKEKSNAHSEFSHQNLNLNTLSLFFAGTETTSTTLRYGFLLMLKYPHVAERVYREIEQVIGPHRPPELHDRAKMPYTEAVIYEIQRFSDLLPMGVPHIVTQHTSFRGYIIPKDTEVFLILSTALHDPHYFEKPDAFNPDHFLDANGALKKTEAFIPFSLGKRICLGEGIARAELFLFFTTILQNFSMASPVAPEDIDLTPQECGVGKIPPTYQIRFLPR
Description: as §1, §2

CYP2C9 = CYP2C9 (Homo sapiens (Human), UniProt P11712); experiment: CYP inhibition assay, human liver microsomes; assay type: biochemical; details: diclofenac 10 μM, reference sulfaphenazole
Sequence of CYP2C9 (P11712 whole entry): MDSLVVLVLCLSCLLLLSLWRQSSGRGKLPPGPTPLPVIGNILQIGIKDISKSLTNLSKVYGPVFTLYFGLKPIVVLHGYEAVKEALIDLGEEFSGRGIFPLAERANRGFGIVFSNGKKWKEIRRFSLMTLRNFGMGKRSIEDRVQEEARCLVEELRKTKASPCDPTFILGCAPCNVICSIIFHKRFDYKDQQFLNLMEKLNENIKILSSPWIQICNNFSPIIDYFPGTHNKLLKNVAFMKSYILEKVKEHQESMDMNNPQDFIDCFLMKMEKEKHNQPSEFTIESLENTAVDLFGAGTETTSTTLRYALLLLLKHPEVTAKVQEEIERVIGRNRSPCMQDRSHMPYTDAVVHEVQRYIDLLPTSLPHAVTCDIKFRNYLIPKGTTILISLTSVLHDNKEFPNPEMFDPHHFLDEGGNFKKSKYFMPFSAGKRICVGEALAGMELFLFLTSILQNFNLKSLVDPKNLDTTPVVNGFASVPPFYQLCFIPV
Description: as §1, §2

CYP3A = CYP3A (Homo sapiens, UniProt P08684); experiment: CYP inhibition assay, human liver microsomes; assay type: biochemical
Sequence of CYP3A (P08684 2-503 limits assumed): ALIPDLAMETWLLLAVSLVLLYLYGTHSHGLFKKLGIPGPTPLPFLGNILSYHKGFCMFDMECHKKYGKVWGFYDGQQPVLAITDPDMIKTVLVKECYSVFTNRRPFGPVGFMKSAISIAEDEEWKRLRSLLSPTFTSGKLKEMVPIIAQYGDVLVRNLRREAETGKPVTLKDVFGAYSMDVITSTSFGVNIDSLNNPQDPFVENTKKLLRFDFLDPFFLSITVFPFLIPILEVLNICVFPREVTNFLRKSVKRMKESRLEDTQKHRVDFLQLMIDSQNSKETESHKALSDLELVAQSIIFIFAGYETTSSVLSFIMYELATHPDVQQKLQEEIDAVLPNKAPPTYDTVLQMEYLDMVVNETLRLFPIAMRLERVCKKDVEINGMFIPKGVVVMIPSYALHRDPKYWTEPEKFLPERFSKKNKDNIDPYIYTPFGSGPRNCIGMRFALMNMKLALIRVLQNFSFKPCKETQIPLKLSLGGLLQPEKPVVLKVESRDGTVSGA
Description: as §1, §2

CYP1A [2] = target: CYP1A (Homo sapiens (Human), UniProt P05177); experiment: CYP inhibition assay, human liver microsomes; assay type: biochemical; details: human liver microsomes, phenacetin 10 μM; read-out: IC50 (M) CYP1A
Sequence of CYP1A (Homo sapiens (Human), UniProt P05177) (P05177 whole entry): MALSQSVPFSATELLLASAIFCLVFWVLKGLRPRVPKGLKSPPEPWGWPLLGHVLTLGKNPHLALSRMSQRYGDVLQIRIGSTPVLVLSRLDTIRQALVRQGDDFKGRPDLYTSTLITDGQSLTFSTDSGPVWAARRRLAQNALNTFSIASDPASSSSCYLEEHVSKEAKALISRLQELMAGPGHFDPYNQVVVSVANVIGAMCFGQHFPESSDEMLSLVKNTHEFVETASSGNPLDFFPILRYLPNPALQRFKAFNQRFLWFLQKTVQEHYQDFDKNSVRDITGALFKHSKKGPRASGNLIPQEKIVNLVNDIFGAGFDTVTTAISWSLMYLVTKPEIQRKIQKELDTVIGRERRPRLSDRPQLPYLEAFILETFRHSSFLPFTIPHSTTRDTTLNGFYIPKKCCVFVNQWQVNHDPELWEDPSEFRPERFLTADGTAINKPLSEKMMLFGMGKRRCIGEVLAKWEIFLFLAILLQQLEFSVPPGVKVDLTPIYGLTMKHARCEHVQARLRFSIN
Description: as §1, §2

CYP2C19 = CYP2C19 (Homo sapiens (Human), UniProt P33261); experiment: CYP inhibition assay, human liver microsomes; assay type: biochemical; details: omeprazole 0.5 μM
Sequence of CYP2C19 (P33261 whole entry): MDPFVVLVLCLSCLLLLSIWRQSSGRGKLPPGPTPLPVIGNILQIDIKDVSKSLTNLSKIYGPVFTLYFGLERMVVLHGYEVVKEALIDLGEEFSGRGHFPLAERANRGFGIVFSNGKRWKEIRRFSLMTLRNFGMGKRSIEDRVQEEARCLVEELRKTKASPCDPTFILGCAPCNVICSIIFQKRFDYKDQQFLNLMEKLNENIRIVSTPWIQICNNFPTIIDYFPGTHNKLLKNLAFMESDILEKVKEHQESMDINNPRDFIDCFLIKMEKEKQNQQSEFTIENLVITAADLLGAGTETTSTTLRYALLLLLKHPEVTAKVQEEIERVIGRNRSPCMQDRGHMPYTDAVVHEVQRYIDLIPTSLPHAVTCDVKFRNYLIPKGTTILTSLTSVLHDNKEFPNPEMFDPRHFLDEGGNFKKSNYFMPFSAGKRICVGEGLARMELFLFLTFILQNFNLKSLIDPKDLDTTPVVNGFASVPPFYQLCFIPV
Description: as §1, §2

CYP2D6 = CYP2D6 (Homo sapiens (Human), UniProt P10635); experiment: CYP inhibition assay, human liver microsomes; assay type: biochemical; details: dextromethorphan 5 μM
Sequence of CYP2D6 (P10635 whole entry): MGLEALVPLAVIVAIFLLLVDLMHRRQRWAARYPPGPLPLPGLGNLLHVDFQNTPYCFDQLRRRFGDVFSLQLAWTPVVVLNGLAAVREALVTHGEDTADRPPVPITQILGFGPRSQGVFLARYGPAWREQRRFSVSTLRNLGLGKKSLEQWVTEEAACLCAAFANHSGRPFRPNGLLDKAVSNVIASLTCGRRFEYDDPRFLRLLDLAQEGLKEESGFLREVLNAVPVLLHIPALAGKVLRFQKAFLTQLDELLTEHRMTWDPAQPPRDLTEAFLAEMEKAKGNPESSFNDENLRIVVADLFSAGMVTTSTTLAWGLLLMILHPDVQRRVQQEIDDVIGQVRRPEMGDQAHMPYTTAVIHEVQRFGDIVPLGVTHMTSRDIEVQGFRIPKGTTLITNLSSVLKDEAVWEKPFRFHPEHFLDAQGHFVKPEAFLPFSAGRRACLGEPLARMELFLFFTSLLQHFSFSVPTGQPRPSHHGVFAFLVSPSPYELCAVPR
Description: as §1, §2

[3] = tested on: DOX-induced cardiac apoptosis in C57/B16 mice; experiment: Mouse annexin model of acute DOX-induced cardiotoxicity (Anx-750 imaging); assay type: in vivo
Description: DOX fluorescence imaging was carried out on IVIS spectrum with the filter setting 500 nm excitation/600 nm emission, 30 second exposure, with 135 μm in-plane resolution. A series of DOX phantoms, ranging from 0 to 0.03 mM was prepared in saline, and imaged on the IVIS spectrum with identical settings. Anx-750 fluorescence was detected with the filter setting 745 nm excitation/800 nm emission, 30 second exposure, and 135 μm resolution.
Annexin and DOX fluorescence signal was quantified and analyzed in ImageJ (National Institute of Health). For each heart, fluorescence intensity was averaged across 4-6 slices. Annexin uptake was normalized to the saline injected control animals. DOX fluorescence in the heart was quantified by calculating the signal-to-noise ratio (SNR=mean fluorescence intensityheart/standard deviationair). A threshold of two standard deviations above the saline injected control animals was applied to all DOX injected animals, with or without therapeutics. Only animals that met the threshold (thus DOX positive hearts) were included in the analysis. All statistical analysis was performed in Prism (Graphpad).
Doxorubicin was dissolved in 0.9% normal saline and administered at a dose of 15 mg/kg to adult C57/B16 mice via i.p. injection. For the treatment arm, compound of example 2 was dissolved in 10% DMSO and 90% olive oil (carrier) or carrier alone was administered via intraperitoneal injection on the contralateral side.
Twenty-two hours after DOX and treatment injections, Anx-750 (Annexin Vivo 750, Perkin Elmer) was injected intravenously according to manufacturer's instructions. After 2 hours of probe circulation, hearts were excised, sectioned into 1-mm slices along the short axis, and imaged on a commercial imaging system (IVIS spectrum, Perkin Elmer) to assess apoptosis as previously described (Chen et al., 2011).
DOX uptake in the heart was assessed by reflectance fluorescence imaging, and the resultant apoptosis was simultaneously imaged with Anx-750, a near-infrared fluorescent Annexin V probe (Annexin-Vivo 750 is an Annexin V conjugate with a near-infrared fluorochrome, see Chen et al., 2011). […] Referring to FIGS. 1A-1D, * p<0.05, ** p<0.01, and *** p<0.001, ANOVA. Carrier=10% DMSO+90% olive oil.

HL-1 cardiomyocytes = experiment: Cultured HL-1 cardiomyocyte model (DOX-induced apoptosis, viability); assay type: cell-based, mouse; details: doxorubicin 5 μM
Description: The cardiomyocyte cell line HL-1 derived from mouse atrial tumor was a gift from W. Claycomb. Cells were cultured as previously published (Claycomb et al., 1998) and treated with doxorubicin 5 μM with or without the tested compounds at a concentration up to 50 μM. Viability was assessed after 18 hours of using a CellTiter-Glo Luminescent assay from Promega. Each dose-response experiment was repeated three times.
Compounds were tested in HL-1 cultured cardiomyocytes to assess for efficacy in preventing DOX-induced apoptosis. Cell viability was assessed as described in the materials and methods section.

CYP1 enzymes = experiment: Zebrafish CYP1 enzyme levels after DOX treatment; details: for levels of CYP1 enzymes after doxorubicin treatment: doxorubicin alone
[4] = tested on: zebrafish embryos treated with DOX (cardiomyopathy phenotype); experiment: Zebrafish doxorubicin cardiomyopathy model (rescue from phenotype); assay type: in vivo; details: Danio rerio; rescue from DOX (100 μM) cardiomyopathy phenotype, 40 hours post-treatment; read-out: EC50 is zebrafish
Description: Zebrafish embryos at 30 hours post-fertilization were treated with DOX at 100 μM in 96-well plates as previously described (Liu et al., 2014). Tested compounds were dissolved in DMSO and added at concentrations ranging from 3 nM to 10 μM (n=6 fish per dose; <1% DMSO v/v). The cardiomyopathy phenotype (decreased cardiac contraction, pericardial edema, and decreased tail blood flow) was assessed under light microscopy (5× magnification) at 40 hours post-treatment (hpt). Percent rescue from the cardiomyopathy phenotype was calculated for each concentration tested. Zebrafish were considered to be rescued from DOX-induced cardiomyopathy if all three features of the phenotype were absent. For the tested compounds, each dose-response experiment was repeated three times.
Dose-response curves were constructed using Prism (GraphPad).
Zebrafish were treated with DOX and assessed for the development of the cardiomyopathy phenotype (decreased cardiac contraction, pericardial edema, and decreased tail blood flow). Zebrafish were considered to be rescued if all three features of the cardiomyopathy phenotype were absent upon co-treatment with a tested compound. Referring to FIGS. 3-9, data are depicted as mean+/−standard error (n=6 fish per dose; each experiment performed in triplicate).

[5] = tested on: zebrafish embryos treated with DOX (cardiomyopathy phenotype); experiment: as above; assay type: in vivo; details: visnagin 20 μM plus AHR agonist
[6] = tested on: myosin heavy chain B (MYHB); experiment: Zebrafish proteomics; assay type: in vivo
Description: (§3) Expression levels of 6085 proteins were measured in zebrafish treated with doxorubicin with or without visnagin. […] This is in contrast to other proteins that were modulated to a similar extent in fish treated with doxorubicin but were not reversed by co-treatment with visnagin. For instance, levels of myosin heavy chain B (MYHB) were decreased in fish treated with DOX alone and in fish treated with DOX+visnagin. Downregulation of MYHB has been previously described with DOX treatment (Ito H, PNAS 1990). Likewise, the inflammatory marker C-reactive protein 3 (CRP3) was increased in both DOX and DOX+visnagin-treated fish.

[7] = tested on: C-reactive protein 3 (CRP3); experiment: Zebrafish proteomics; assay type: in vivo
Description: as §3

[8] = patients treated with DOX; cited from earlier work
slc2a1a = experiment: Zebrafish proteomics; assay type: in vivo; details: zebrafish embryos, 40 hours post-treatment; visnagin 20 μM
thbs1b = experiment: Zebrafish proteomics; assay type: in vivo; details: zebrafish embryos, 40 hours post-treatment; visnagin 20 μM
gstp2 = experiment: Zebrafish proteomics; assay type: in vivo; details: zebrafish embryos, 40 hours post-treatment; visnagin 20 μM
sqstm1 = experiment: Zebrafish proteomics; assay type: in vivo; details: zebrafish embryos, 40 hours post-treatment; visnagin 20 μM
rad9a = experiment: Zebrafish proteomics; assay type: in vivo; details: zebrafish embryos, 40 hours post-treatment; visnagin 20 μM
dhrs13l1 = experiment: Zebrafish proteomics; assay type: in vivo; details: zebrafish embryos, 40 hours post-treatment; visnagin 20 μM
cyp1c1 = experiment: Zebrafish proteomics; assay type: in vivo; details: zebrafish embryos, 40 hours post-treatment; visnagin 20 μM
Description: (§4) The proteomics analysis was carried out as described in the material and methods section. All protein abundance values are normalized to DMSO-treated control zebrafish. * p<0.05 compared to the DMSO control using the Benjamini-Hochberg method of correcting for multiple hypotheses.

CYP1A [9] = experiment: Zebrafish proteomics; assay type: in vivo; details: zebrafish embryos, 40 hours post-treatment; visnagin 20 μM
Description: as §4

cyp1b1 = experiment: Zebrafish proteomics; assay type: in vivo; details: zebrafish embryos, 40 hours post-treatment; visnagin 20 μM
Description: as §4

LOC100332237 = experiment: Zebrafish proteomics; assay type: in vivo; details: zebrafish embryos, 40 hours post-treatment; visnagin 20 μM

With `CC(C)(C)OC(=O)NCCCOc1c2ccoc2cc2oc(=O)ccc12` [Example 2, tert-butyl (3-((7-oxo-7H-furo[3,2-g]chromen-4-yl)oxy)propyl)carbamate] the “toxic dose TD50 in the zebrafish model” value (zebrafish embryos) was greater than 10 µM, the “induction of CYP1A by DOX, Western blot” value (CYP1A [1]) was “mitigated induction of CYP1A” and the “Mean % Inhibition CYP2C8” value (CYP2C8) was 7.1%. For the same molecule, the IC50 (CYP2B6) was 88 µM, the “Mean % Inhibition CYP2B6” value (CYP2B6; reference clopidogrel) was 67.2% and the “Mean % Inhibition CYP2C9” value (CYP2C9) was 2.4%. The IC50 (CYP3A; probe testosterone 50 μM) was 9.3 µM, the “Mean % Inhibition CYP3A” value (CYP3A; testosterone 50 μM, reference ketoconazole) was 62.7% and the IC50 (CYP1A [2]) was 1.6e-06 M. The IC50 (CYP2C19) was 12 µM, the “Mean % Inhibition CYP2C19” value (CYP2C19; reference oxybutynin) was 57.0% and the IC50 (CYP2D6) was 2 µM. The “Mean % Inhibition CYP2D6” value (CYP2D6; reference quinidine) was 84.4%, the “cardiac apoptosis / Annexin (Anx-750) uptake” value ([3]; DOX 15 mg/kg i.p., doses of 0.1 mg/kg, 1 mg/kg and 2 mg/kg i.p., 24 hours) was “significant reduction in apoptosis; also recorded: reduced significantly; also recorded: significant cardioprotective effect” and the “Annexin-Vivo fluorescence in the mouse heart / cardioprotection” value ([3]; DOX 15 mg/kg, 0.1 mg/kg i.p.) was “significantly reduced; also recorded: cardioprotective”. For the same molecule, the “ex vivo Anx fluorescence in heart” value ([3]; DOX 15 mg/kg, dose of 2 mg/kg) was “marked reduction”, the “potency relative to visnagin in reducing DOX-induced cardiomyocyte apoptosis in mice” value ([3]; compared to visnagin) was 250 fold and the EC50 (HL-1 cardiomyocytes; Mus musculus, HL-1, viability after 18 hours, CellTiter-Glo, read-out: EC50 in HL-1 Cells) was greater than 50 µM. The “efficacy in HL-1 cell culture model” value (HL-1 cardiomyocytes; doses up to 50 μM) was “ineffective”, the “effect on DOX-induced increase of CYP1 enzyme levels” value (CYP1 enzymes; co-treatment with doxorubicin) was “completely abolished” and the EC50 [4] was 0.007 µM.
For `COC(=O)c1csc(C(=O)c2c[nH]c3ccccc23)n1` [methyl 2-(1H-indole-3-carbonyl)-1,3-thiazole-4-carboxylate], the “effect on visnagin-mediated rescue from doxorubicin-induced cardiomyopathy” value [5] was “abrogated”.
For `COc1cccc2c1C(=O)c1c(O)c3c(c(O)c1C2=O)C[C@@](O)(C(=O)CO)C[C@@H]3O[C@H]1C[C@H](N)[C@H](O)[C@H](C)O1` [DOX, doxorubicin], the “levels of myosin heavy chain B (MYHB)” value [6] is listed as “decreased”, the “levels of C-reactive protein 3 (CRP3)” value [7] is listed as “increased” and the “patients with dose-dependent cardiotoxicity” value [8] is listed as “up to 9%”. For the same molecule, the “Protein Abundance (Normalized to DMSO) slc2a1a” value (slc2a1a) was 1.19, the “Protein Abundance (Normalized to DMSO) thbs1b” value (thbs1b) was 2.29* and the “cardiac annexin uptake, DOX only group” value ([3]; DOX 15 mg/kg + carrier vs saline control) was “increased significantly”. For the same molecule, the “Protein Abundance (Normalized to DMSO) gstp2” value (gstp2) was 2.32*, the “Protein Abundance (Normalized to DMSO) sqstm1” value (sqstm1) was 2.78* and the “Protein Abundance (Normalized to DMSO) rad9a” value (rad9a) was 2.92*. The “levels of CYP1 enzymes after doxorubicin treatment” value (CYP1 enzymes) was “robust induction”, the “levels of CYP1 enzymes after doxorubicin treatment” value (CYP1 enzymes; listed as doxorubicin) was “significant upregulation; also recorded: significantly increased” and the “Protein Abundance (Normalized to DMSO) dhrs13l1” value (dhrs13l1) was 3.02*. The “Protein Abundance (Normalized to DMSO) cyp1c1” value (cyp1c1) was 7.91*, the “Protein Abundance (Normalized to DMSO) cyp1a” value (CYP1A [9]) was 9.52* and the “Protein Abundance (Normalized to DMSO) cyp1b1” value (cyp1b1) was 6.26*. The “Protein Abundance (Normalized to DMSO) LOC100332237” value (LOC100332237) was 3.03*.
